Data: patent US20070203239A1, “Compounds For The Treatment Of An Acute Injury To The Central Nervous System” (Neurotec Pharma, S.L., priority 2004, published 2007)

Experiments:
[1] = tested on: hippocampal microglial reaction; assay: Microglial reaction (IB4 histochemistry) after stereotaxic intrahippocampal microinjection, AMPA excitotoxicity model; format: in vivo, rat; details: for density of reactive microcytes (IB4-stained) / hippocampal microgliosis area: rat dorsal hippocampus, 24 hours after lesion, mean ± SEM, n=4; for hippocampal microgliosis area: two 0.5 μl injections 2 h apart (5.4 mM AMPA and/or 20 μM glibenclamide)
Experimental: (§1) In this neurodegenerative model, rats were anaesthetized with equithesin (a mixture of chloral hydrate and sodium pentobarbitone; 0.3 ml/100 g body wt, i.p.), and placed on a Kopf stereotaxic frame with the incisor bar set at −3.3 mm. Intracerebral injections aimed at the dorsal hippocampus were performed at 3.3 mm caudal to bregma, 2.2 mm lateral, and 2.9 mm ventral from dura (cf. G. Paxinos et al., “The rat brain in stereotaxic coordinates”, Sydney: Academic Press 1986). A volume of 0.5 μl was injected over a period of 5 min.
(§2) Four different groups of rats received two injections in a 2-hour interval as follows: a) sham rats (n=4) received two injections of PBS; b) AMPA rats (n=4) received the first injection of 5.4 mM AMPA and the second of PBS; c) glibenclamide rats (n=4) received two injections of 20 μM glibenclamide; d) AMPA+glibenclamide rats (n=4) received 5.4 mM AMPA+20 μM glibenclamide in the first injection and 20 μM glibenclamide in the second injection. All rats were sacrified 24 hours after the lesion.
(§3) Rats were transcardially perfused with 300 ml of 0.1 M phosphate buffer (PB, pH 7.4) followed by 300 ml ice-cold fixative (flow rate 20 ml/min). The fixative consisted of 4% (w/v) paraformaldehyde in PB. Brains were removed, crioprotected with 15% (w/v) sucrose in PB and then, frozen with dry ice.
Cryostat sections (12 μm) were obtained at the level of dorsal hippocampus (−3.3 mm to bregma). Isolectine B4 (IB4) histochemistry was performed to identify the microglial reaction (cf. C. A. Colton et al., J. Histochem. Cytochem. 1992, vol. 40, pp. 505-12). The hippocampal morphology was studied in Cresyl violet stained sections. The area of lesion and the microgliosis evaluation were performed on cresyl violet and IB4-positive stained sections respectively. These parameters were analyzed using a computer-assisted image analysis system (OPTIMAS®, BioScan Inc., Washington, USA). IB4-stained reactive microcytes were counted at ×100 magnification using an ocular grid mounted on a transmission light microscope (Axiolab, Zeiss, Göttingen, Germany). One-way ANOVA was used to compare differences between groups, followed by the LSD post-hoc test. Results are expressed as mean ± SEM.

[2] = tested on: AMPA induced rat hippocampal excitotoxic damage; assay: Hippocampal CA1 lesion area (cresyl violet) after stereotaxic intrahippocampal microinjection, AMPA excitotoxicity model; format: in vivo; details: for area of hippocampal CA1 pyramidal layer lesion: rat dorsal hippocampus, two injections 2 h apart (5.4 mM AMPA and/or 20 μM glibenclamide), 24 hours after lesion, mean ± SEM
Experimental: as §1, §2, §3
Cryostat sections (12 μm) were obtained at the level of dorsal hippocampus (−3.3 mm to bregma). Isolectine B4 (IB4) histochemistry was performed to identify the microglial reaction (cf. C. A. Colton et al., J. Histochem. Cytochem. 1992, vol. 40, pp. 505-12). The hippocampal morphology was studied in Cresyl violet stained sections. […] These parameters were analyzed using a computer-assisted image analysis system (OPTIMAS®, BioScan Inc., Washington, USA). IB4-stained reactive microcytes were counted at ×100 magnification using an ocular grid mounted on a transmission light microscope (Axiolab, Zeiss, Göttingen, Germany). […] Results are expressed as mean ± SEM.

[3] = rat AMPA hippocampal excitotoxicity model, 20 μM glibenclamide

Question: Which results are given for `Cc1onc(O)c1CC(N)C(=O)O` (stereo not drawn) [AMPA, α-amino-3-hydroxy-5-methylisoxazole-4-propionic]?
Answer: density of reactive microcytes (IB4-stained) [1]: 645±59 cells/mm^2; hippocampal microgliosis area [1]: 0.44±0.07 mm^2; area of hippocampal CA1 pyramidal layer lesion [2]: 0.130±0.015 mm^2

Question: How did the “effect on microglial activation (in words)” value [1, 3] turn out when `COc1ccc(Cl)cc1C(=O)NCCc1ccc(S(=O)(=O)NC(=O)NC2CCCCC2)cc1` [glibenclamide] was run?
Answer: potentiates microglial activation

Question: And the “density of reactive microcytes (IB4-stained)” value [1]?
Answer: 614±91 cells/mm^2

Question: What about the hippocampal microgliosis area [1] of the same compound?
Answer: 0.16±0.03 mm^2

Question: What about the “effect on hippocampal lesion (in words)” value [2, 3] of the same compound?
Answer: avoids hippocampal excitotoxic damage

Question: What about the “area of hippocampal CA1 pyramidal layer lesion” value [2] of the same compound?
Answer: 0.012±0.0017 mm^2
